In ChEMBL document CHEMBL6109092, “Anti-HBV activity of (R)-gentiandiol, a metabolite of Swertiamarin, in transgenic mice: Insights from non-targeted serum metabolomics” (Bioorg Med Chem, 2025) one finds Activity data, which are given here for four molecules.

The source made the active and inactive calls. The calls are words filed in the database; no cut-off is given here.

Common to all, as to assay type: functional, organism-based
The test system of assay [1] is Hepatitis B virus. The assay can be described thus: In vivo antiviral activity against HBV infected in male C57BL/6NCrl mouse assessed as reduction in HBV-DNA level at 6 mg/kg administered via tail vein measured after 8 weeks by ELISA. (ELISA stands for enzyme-linked immunosorbent assay.)
Assay [2] has as its system Hepatitis B virus. The assay can be described thus: In vivo antiviral activity against HBV infected in male C57BL/6NCrl mouse assessed as reduction in HBsAg level at 6 mg/kg administered via tail vein measured after 8 weeks by ELISA.
Assay [3] has as its system Hepatitis B virus. The assay can be described thus: In vivo antiviral activity against HBV infected in male C57BL/6NCrl mouse assessed as reduction in HBeAg level at 6 mg/kg administered via tail vein measured after 8 weeks by ELISA.
Assay [4] relates to Mus musculus. The assay can be described thus: Reversal of tyrosine in HBV infected male C57BL/6NCrl mouse serum at 50 to 150 mg/kg, administered via tail vein by UPLC-Q/TOF-MS analysis. The settings on record: dose 50-150 mg/kg.
The subject of assay [5] is Hepatitis B virus. The assay can be described thus: In vivo antiviral activity against HBV infected in male C57BL/6NCrl mouse assessed as reduction in HBV-DNA level at 1.5 mg/kg administered via tail vein measured after 8 weeks by ELISA.
For assay [6], the system named is Hepatitis B virus. The assay can be described thus: In vivo antiviral activity against HBV infected in male C57BL/6NCrl mouse assessed as reduction in HBsAg level at 1.5 mg/kg administered via tail vein measured after 8 weeks by ELISA.
For assay [7], the system named is Mus musculus. The assay can be described thus: Reversal of phenylalanine level in HBV infected male C57BL/6NCrl mouse serum at 50 to 150 mg/kg, administered via tail vein by UPLC-Q/TOF-MS analysis. The settings on record: dose 50-150 mg/kg.
In assay [8] the test system is Hepatitis B virus. The assay can be described thus: In vivo antiviral activity against HBV infected in male C57BL/6NCrl mouse assessed as reduction in HBV-DNA level administered via tail vein measured after 8 weeks by ELISA. As to conditions: dose 1.5-6 mg/kg.
Assay [9] has as its system Hepatitis B virus. The assay can be described thus: In vivo antiviral activity against HBV infected in male C57BL/6NCrl mouse assessed as reduction in HBV-DNA level at 3 mg/kg administered via tail vein measured after 8 weeks by ELISA.
The subject of assay [10] is Hepatitis B virus. The assay can be described thus: In vivo antiviral activity against HBV infected in male C57BL/6NCrl mouse assessed as reduction in HBsAg level at 3 mg/kg administered via tail vein measured after 8 weeks by ELISA.
The subject of assay [11] is Mus musculus. The assay can be described thus: Reduction in taurocholic acid in HBV infected male C57BL/6NCrl mouse serum at 50 to 150 mg/kg, administered via tail vein by UPLC-Q/TOF-MS analysis. The settings on record: dose 50-150 mg/kg.
Assay [12] deals with Mus musculus. The assay can be described thus: Reversal of citric acid level in HBV infected male C57BL/6NCrl mouse serum at 50 to 150 mg/kg, administered via tail vein by UPLC-Q/TOF-MS analysis. The settings on record: dose 50-150 mg/kg.
For assay [13], the system named is Hepatitis B virus. The assay can be described thus: In vivo antiviral activity against HBV infected in male C57BL/6NCrl mouse assessed as reduction in HBeAg level at 3 mg/kg administered via tail vein measured after 8 weeks by ELISA.
Assay [14] concerns Hepatitis B virus. The assay can be described thus: In vivo antiviral activity against HBV infected in male C57BL/6NCrl mouse assessed as reduction in HBeAg level at 1.5 mg/kg administered via tail vein measured after 8 weeks by ELISA.
Assay [15] has as its system Mus musculus. In words: Reversal of arachidonic acid level in HBV infected male C57BL/6NCrl mouse serum at 50 to 150 mg/kg, administered via tail vein by UPLC-Q/TOF-MS analysis. As to conditions: dose 50-150 mg/kg.
Assay [16] concerns Hepatitis B virus. The assay can be described thus: In vivo antiviral activity against HBV infected in male C57BL/6NCrl mouse assessed as reduction in HBeAg level at 0.065 mg/kg, IG measured after 8 weeks by ELISA.
In assay [17] the test system is Hepatitis B virus. In words: In vivo antiviral activity against HBV infected in male C57BL/6NCrl mouse assessed as reduction in HBsAg level at 0.065 mg/kg, IG measured after 8 weeks by ELISA.
The subject of assay [18] is Hepatitis B virus. In words: In vivo antiviral activity against HBV infected in male C57BL/6NCrl mouse assessed as reduction in HBV-DNA level at 0.065 mg/kg, IG measured after 8 weeks by ELISA.
In assay [19] the test system is Mus musculus. In words: Reversal of tyrosine in HBV infected male C57BL/6NCrl mouse serum at 0.026 mg/kg, IG by UPLC-Q/TOF-MS analysis.
In assay [20] the test system is Mus musculus. The assay can be described thus: Reversal of phenylalanine level in HBV infected male C57BL/6NCrl mouse serum at 0.026 mg/kg, IG by UPLC-Q/TOF-MS analysis.
The subject of assay [21] is Hepatitis B virus. In words: In vivo antiviral activity against HBV infected in male C57BL/6NCrl mouse assessed as reduction in HBV-DNA level at 0.026 g/Kg, IG measured after 8 weeks by ELISA.
Assay [22] relates to Hepatitis B virus. In words: In vivo antiviral activity against HBV infected in male C57BL/6NCrl mouse assessed as reduction in HBeAg level at 0.026 g/Kg, IG measured after 8 weeks by ELISA.
The subject of assay [23] is Mus musculus. The assay can be described thus: Reversal of citric acid level in HBV infected male C57BL/6NCrl mouse serum at 0.026 mg/kg, IG by UPLC-Q/TOF-MS analysis.
Assay [24] has as its system Mus musculus. The assay can be described thus: Reversal of arachidonic acid level in HBV infected male C57BL/6NCrl mouse serum at 0.026 mg/kg, IG by UPLC-Q/TOF-MS analysis.
Assay [25] has as its system Hepatitis B virus. The assay can be described thus: In vivo antiviral activity against HBV infected in male C57BL/6NCrl mouse assessed as reduction in HBsAg level at 0.026 g/Kg, IG measured after 8 weeks by ELISA.

With `O=C1OCCc2c1cncc2[C@H](O)CO`, the result in assay [1], in assay [2] and in assay [3] was inactive.
`O=C1OCCc2c1cncc2[C@@H](O)CO`: the result in assay [4], in assay [5], in [1], in assay [6], in assay [7] and in assay [2] was Active. Moreover, the result in assay [9], in [10], in [3], in assay [11], in assay [12] and in assay [13] was Active. The result in assay [14] and in assay [15] was Active. For the same molecule, the Activity result in assay [8] is “Dose-dependent-effect”.
Consider `C=C1[C@H](CO)[C@@H](O)C[C@@H]1n1cnc2c(=O)[nH]c(N)nc21`, for which the outcome in assay [16], in [17] and in assay [18] was Active.
For `C=C[C@H]1[C@H](O[C@@H]2O[C@H](CO)[C@@H](O)[C@H](O)[C@H]2O)OC=C2C(=O)OCC[C@]21O`, the outcome in assay [19], in [20], in assay [21], in assay [22], in [23] and in assay [24] was Active. The result in assay [25] was Active.
